# In PubChem BioAssay (NCI):
#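 Following 48 hours of exposure in 96-well plates, responses at five concentrations were used to interpolate endpoints linearly. GI50 marks 50% less growth. The concentration for full growth arrest is given as TGI.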
# Tests used:
# Assay in all cases: NCI-60 cell line screen, 48 h
# MCF7 breast = system: MCF7 breast
# SK-MEL-2 melanoma = system: SK-MEL-2 melanoma
# MALME-3M melanoma = system: MALME-3M melanoma
# HOP-62 NSCLC = system: HOP-62 NSCLC
# HCT-15 colon = system: HCT-15 colon
# LOX IMVI melanoma = system: LOX IMVI melanoma
# TK-10 renal = system: TK-10 renal
# M14 melanoma = system: M14 melanoma
# NCI-H460 lung = system: NCI-H460 lung
# HS 578T breast = system: HS 578T breast
# SNB-75 CNS = system: SNB-75 CNS
# UACC-257 melanoma = system: UACC-257 melanoma
# UO-31 renal = system: UO-31 renal
# HT29 colon = system: HT29 colon
# NCI-H23 lung = system: NCI-H23 lung
# HCC-2998 colon = system: HCC-2998 colon
# OVCAR-8 ovarian = system: OVCAR-8 ovarian
# OVCAR-4 ovarian = system: OVCAR-4 ovarian
# SNB-19 CNS = system: SNB-19 CNS
# 786-0 renal = system: 786-0 renal
# SW-620 colon = system: SW-620 colon
# MDA-MB-231 breast = system: MDA-MB-231 breast
# SF-295 CNS = system: SF-295 CNS
# HCT-116 colon = system: HCT-116 colon
# SN12C renal = system: SN12C renal
# A549 NSCLC = system: A549 NSCLC
# SK-MEL-5 melanoma = system: SK-MEL-5 melanoma
smiles,measurement,setting,value
O=c1c2[nH]c3ccccc3c2nc2n1CCS2,GI50,MCF7 breast,> 100 µM
same,TGI,MCF7 breast,> 100 µM
same,GI50,SK-MEL-2 melanoma,> 100 µM
same,TGI,SK-MEL-2 melanoma,> 100 µM
same,GI50,MALME-3M melanoma,69.9 µM
same,TGI,MALME-3M melanoma,> 100 µM
same,GI50,HOP-62 NSCLC,> 100 µM
same,TGI,HOP-62 NSCLC,> 100 µM
same,GI50,HCT-15 colon,68.5 µM
same,TGI,HCT-15 colon,> 100 µM
same,GI50,LOX IMVI melanoma,54.7 µM
same,TGI,LOX IMVI melanoma,> 100 µM
same,GI50,TK-10 renal,> 100 µM
same,TGI,TK-10 renal,> 100 µM
same,GI50,M14 melanoma,> 100 µM
same,TGI,M14 melanoma,> 100 µM
same,GI50,NCI-H460 lung,> 100 µM
same,TGI,NCI-H460 lung,> 100 µM
same,GI50,HS 578T breast,26.9 µM
same,TGI,HS 578T breast,> 100 µM
same,GI50,SNB-75 CNS,15.8 µM
same,TGI,SNB-75 CNS,77.3 µM
same,GI50,UACC-257 melanoma,> 100 µM
same,TGI,UACC-257 melanoma,> 100 µM
same,GI50,UO-31 renal,47.2 µM
same,TGI,UO-31 renal,> 100 µM
same,GI50,HT29 colon,> 100 µM
same,TGI,HT29 colon,> 100 µM
same,GI50,NCI-H23 lung,> 100 µM
same,TGI,NCI-H23 lung,> 100 µM
same,GI50,HCC-2998 colon,> 100 µM
same,TGI,HCC-2998 colon,> 100 µM
same,GI50,OVCAR-8 ovarian,> 100 µM
same,TGI,OVCAR-8 ovarian,> 100 µM
same,GI50,OVCAR-4 ovarian,> 100 µM
same,TGI,OVCAR-4 ovarian,> 100 µM
same,GI50,SNB-19 CNS,> 100 µM
same,TGI,SNB-19 CNS,> 100 µM
same,GI50,786-0 renal,> 100 µM
same,TGI,786-0 renal,> 100 µM
same,GI50,SW-620 colon,> 100 µM
same,TGI,SW-620 colon,> 100 µM
same,GI50,MDA-MB-231 breast,> 100 µM
same,TGI,MDA-MB-231 breast,> 100 µM
same,GI50,SF-295 CNS,> 100 µM
same,TGI,SF-295 CNS,> 100 µM
same,GI50,HCT-116 colon,> 100 µM
same,TGI,HCT-116 colon,> 100 µM
same,GI50,SN12C renal,> 100 µM
same,TGI,SN12C renal,> 100 µM
same,GI50,A549 NSCLC,> 100 µM
same,TGI,A549 NSCLC,> 100 µM
same,GI50,SK-MEL-5 melanoma,> 100 µM
same,TGI,SK-MEL-5 melanoma,> 100 µM
